Assay results as given in the supplement of paper PMC12592484.

Columns and labels:
Assay in all cases: drug sensitivity score (DSS2, normalised partial AUC of dose-response, 72 h CellTiter-Glo viability) (DSS (dimensionless)); higher = more sensitive (stronger growth inhibition / cytotoxicity); extreme values may be limits of the assay
[1] = tested on: PF179T
Outline: (§1)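 Low-passage primary prostate cancer-associated fibroblasts, PF179T, WPMY-1, LNCaP and 22Rv1 cells were seeded into 384-well plates carrying pre-dispensed compounds at five doses covering a 10,000-fold range. After 72 h, viability was read by CellTiter-Glo 2.0 luminescence. Responses were scaled to vehicle and positive-control wells. The drug sensitivity score (DSS2) is a partial area under the fitted logistic dose–response curve divided by the log of its upper asymptote, computed in BREEZE; higher means more sensitive.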

[2] = tested on: LNCAP
Outline: as §1

[3] = tested on: CAF#4 (primary prostate cancer-associated fibroblasts of iCAF-like type)
Outline: as §1

[4] = tested on: WPMY-1
Outline: as §1

[5] = tested on: CAF#5 (primary prostate cancer-associated fibroblasts of myCAF-like type)
Outline: as §1

[6] = tested on: CAF#1 (primary prostate cancer-associated fibroblasts of myCAF-like type)
Outline: as §1

[7] = tested on: CAF#3 (primary prostate cancer-associated fibroblasts of myCAF-like type)
Outline: as §1

[8] = tested on: CAF#2 (primary prostate cancer-associated fibroblasts of iCAF-like type)
Outline: as §1

[9] = tested on: CAF#6 (primary prostate cancer-associated fibroblasts of iCAF-like type)
Outline: as §1

[10] = tested on: 22Rv1
Outline: as §1

[11] = tested on: CAF#7 (primary prostate cancer-associated fibroblasts of myCAF-like type)
Outline: as §1

| Compound | drug sensitivity score [1] | drug sensitivity score [2] | drug sensitivity score [3] | drug sensitivity score [4] | drug sensitivity score [5] | drug sensitivity score [6] | drug sensitivity score [7] | drug sensitivity score [8] | drug sensitivity score [9] | drug sensitivity score [10] | drug sensitivity score [11] |
| --- | --- | --- | --- | --- | --- | --- | --- | --- | --- | --- | --- |
| COc1cc([C@@H]2c3cc4c(cc3[C@@H](O[C@@H]3O[C@@H]5CO[C@@H](C)O[C@H]5[C@H](O)[C@H]3O)[C@H]3COC(=O)[C@H]23)OCO4)cc(OC)c1O [Etoposide] (tested concentration range 1-10000 nM) | 5.8 | 9.9 | 0.9 | 9 | 3 | 2.3 | 2.6 | 5.9 | 2.8 | 10.1 | 5.1 |
| CO[C@H]1C[C@@H]2CC[C@@H](C)[C@@](O)(O2)C(=O)C(=O)N2CCCC[C@H]2C(=O)O[C@H]([C@H](C)C[C@@H]2CC[C@@H](OCCO)[C@H](OC)C2)CC(=O)[C@H](C)/C=C(\C)[C@@H](O)[C@@H](OC)C(=O)[C@H](C)C[C@H](C)/C=C/C=C/C=C/1C [Everolimus] (tested concentration range 0-100 nM) | 6.3 | 14.1 | 6.1 | 5.4 | 9.7 | 11.5 | 7.2 | 8.2 | 8.2 | 11.6 | 10.8 |
| C=C1C[C@@H]2[C@H](CC[C@]3(C)C(=O)CC[C@@H]23)[C@@]2(C)C=CC(=O)C=C12 [Exemestane] (tested concentration range 1-10000 nM) | 0 | 2.5 | 0 | 0 | 0 | 0 | 0.7 | 0 | 0 | 0 | 0 |
| CCn1c(=O)c(-c2ccc(Cl)cc2Cl)cc2cnc(Nc3ccc(N4CCNCC4)c(F)c3)nc21 [FRAX486] (tested concentration range 0.5-5000 nM) | 12.4 | 6.3 | 9.7 | 8.6 | 11.4 | 12.2 | 9.1 | 14.7 | 9 | 1.1 | 8.9 |
| Cc1cnc(Nc2ccc(OCCN3CCCC3)cc2)nc1Nc1cccc(S(=O)(=O)NC(C)(C)C)c1 [Fedratinib] (tested concentration range 1-10000 nM) | 7.7 | 8 | 4.6 | 7.2 | 5.2 | 3.9 | 9.7 | 5 | 8 | 9.5 | 9.6 |
| CON(C)C(=O)N1N=C(c2cc(F)ccc2F)S[C@@]1(CCCN)c1ccccc1 [Filanesib] (tested concentration range 0.1-1000 nM) | 13 | 29.5 | 6 | 22 | 3.9 | 0.2 | 3.2 | 17.7 | 2.6 | 21.3 | 2.6 |
| O=C(Nc1nc2cccc(-c3ccc(CN4CCS(=O)(=O)CC4)cc3)n2n1)C1CC1 [Filgotinib] (tested concentration range 1-10000 nM) | 0.9 | 3.8 | 0 | 2.1 | 1.9 | 2.1 | 1.7 | 2.3 | 0.1 | 2.5 | 0.6 |
| CC(C)(C)NC(=O)[C@H]1CC[C@H]2[C@@H]3CC[C@H]4NC(=O)C=C[C@]4(C)[C@H]3CC[C@]12C [Finasteride] (tested concentration range 1-10000 nM) | 0 | 2.8 | 0 | 0 | 0 | 0 | 0.5 | 0 | 0 | 0 | 0 |
| CCCCCCCCc1ccc(CCC(N)(CO)CO)cc1 [Fingolimod] (tested concentration range 1-10000 nM) | 5.1 | 7.9 | 6 | 6.7 | 6.8 | 5.4 | 5.2 | 5.3 | 5.9 | 7 | 6.3 |
| O=c1[nH]c(=O)n([C@H]2C[C@H](O)[C@@H](CO)O2)cc1F [Floxuridine] (tested concentration range 1-10000 nM) | 5.1 | 15.2 | 2 | 24 | 1.4 | 1.8 | 1.1 | 4.3 | 2.3 | 6 | 3 |
| Nc1nc(F)nc2c1ncn2[C@@H]1O[C@H](CO)[C@@H](O)[C@@H]1O [Fludarabine] (tested concentration range 1-10000 nM) | 4.3 | 5.5 | 0.3 | 0.7 | 2.2 | 1.5 | 0 | 0.7 | 0.1 | 0 | 2.1 |
| O=c1[nH]cc(F)c(=O)[nH]1 [Fluorouracil] (tested concentration range 1-10000 nM) | 3.4 | 4.6 | 2 | 0.2 | 2.9 | 2.6 | 0.5 | 3.6 | 1.6 | 2.4 | 2.1 |
